Article PMC6891756, “Synthesis and Biological Evaluation of Novel Aminochalcones as Potential Anticancer and Antimicrobial Agents” (Molecules, 2019)
In brackets after ≈: the same amount, converted by molar mass.

Columns and labels:
[1] = tested on: Alternaria alternata CBS1526; assay: Microbial growth curve screening, A. alternata; assay type: cell-based; conditions: 0.1% (w/v); for ∆OD A. alternata: OD at 560 nm, control 1.86
Experimental: (§1) The antimicrobial screening tests were performed on two strains of bacteria: E. coli ATCC10536 and S. aureus DSM799, strain of yeast C. albicans DSM1386 and three strains of fungi: F. linii KB-F1, A. alternata CBS1526 and A. niger DSM1957. All microorganisms were obtained from the collection of the Faculty of Biotechnology and Food Microbiology, Wrocław University of Environmental and Life Sciences. The bacteria were cultured in nutrient broth (Biocorp, Warsaw, Poland), yeast and fungi in YM medium (3 g yeast extract, 3 g malt extract, 5 g bacteriological peptone and 10 g of glucose dissolved in 1 L of distilled water). The tests were carried out in 100-well microtiter plates. To each well 280 μL of culture medium, 10 μL of microorganism suspension and 10 μL of aminochalcone (1–18) dissolved in dimethyl sulfoxide (3% (w/v)) were added. The final concentration of the tested compound (1–18) was 0.1% (w/v). Each experiment were performed in 3 replications. The optical density of the cell suspension was measured on Bioscreen C (Automated Growth Curve Analysis System Lab System, Vantaa, Finland) at 560 nm automatically, at regular intervals of 30 min for 2–3 days. Cell cultures were maintained at 28 °C on a continuous shaker. To prepare the growth curves for each strain, the mean values of the absorbance in a function of time were used. The resulting antimicrobial activity was expressed as the increase of optical density (ΔOD) and was compared to that of the control cultures in the medium supplemented with dimethyl sulfoxide and also with reference substances: oxytetracycline (against bacteria), cycloheximide (against yeast) and nystatin (against fungi) (Sigma Aldrich).

HT-29 cell line = tested on: HT-29 cell line; design: method as in PMID 24675137; conditions: cited from earlier work
Candida albicans DSM1386 [2] = assay: Microbial growth curve screening, C. albicans; assay type: cell-based; conditions: 0.1% (w/v)
Experimental: as §1

[3] = SRB assay, normal fibroblasts COS7; assay type: cell-based, green monkey; conditions: green monkey, COS7 kidney fibroblasts (normal cell line), ND = not detected in the tested concentration range
Experimental: (§2) Anticancer activity was evaluated using the sulforhodamine B assay (SRB) on four different human colon cancer cell lines: HT-29, LS180, LoVo and LoVo/DX and green monkey kidney fibroblasts COS7 (ATCC, Manassas, VA, USA). Cell lines HT-29 and COS7 were cultured in α-MEM medium (IIET PAS, Wrocław, Poland), LS180 in OptiMEM medium (IIET PAS), LoVo and LoVo/DX in mixture of α-MEM and OptiMEM medium (1:1 (v:v)). Each culture medium was supplemented with 10% fetal bovine serum, 2 mM glutamine, 100 μg·mL^−1 penicillin, 100 μg·mL^−1 streptomycin and 0.25 μg·mL^−1 amphotericin (all supplements purchased from Gibco (Paisley, UK). Cells were incubated at 37 °C, 5% CO2 in HeraCELL 150i incubator (Thermo Fisher Scientific, Waltham, MA, USA).
(§3) For the SRB assay, cells were seeded onto 96-well plates (Sarstedt, Nümbrecht, Germany) at a density of 5·10^3/well and cultured overnight as described above. Then, the growth medium was gently removed and replaced with fresh medium, supplemented with aminochalcone derivatives in the concentration ranging from 1 µg·mL^−1 to 100 µg·mL^−1. All stock solutions were prepared in DMSO at a concentration of 10 mg·mL^−1. Cells were incubated for 48 h and then the SRB assay was performed as described previously. Each experiment was performed in quadruplicate. The final results were reported as the IC50 values calculated for three independent experiments. Cisplatin (Acros Organics, Waltham, MA, USA) and doxorubicin (Fisher BioReagents, Waltham, MA, USA) were used as positive controls of the test.

Fusarium linii KB-F1 [4] = assay: Microbial growth curve screening, F. linii; assay type: cell-based; conditions: 0.1% (w/v); for ∆OD F. linii: OD at 560 nm, control 1.95; for Lag-phase F. linii: control 13.5 h
Experimental: as §1

LS180 = assay: SRB antiproliferative assay, LS180; assay type: cell-based, human; conditions: 1–100 µg·mL^−1, ND = not detected in the tested concentration range; for IC50: Homo sapiens, LS180, 48 h
Experimental: as §2, §3

[5] = tested on: Escherichia coli ATCC10536; assay: Microbial growth curve screening, E. coli; assay type: cell-based; conditions: 0.1% (w/v); for ∆OD E. coli: OD at 560 nm, control 1.61
Experimental: as §1

HT-29 = assay: SRB antiproliferative assay, HT-29; assay type: cell-based, human; conditions: for IC50: Homo sapiens, HT-29
Experimental: as §2, §3

[6] = tested on: Staphylococcus aureus DSM799; assay: Microbial growth curve screening, S. aureus; assay type: cell-based; conditions: 0.1% (w/v); for ∆OD S. aureus: OD at 560 nm, control 1.67
Experimental: as §1

LoVo = assay: SRB antiproliferative assay, LoVo; assay type: cell-based, human; conditions: 48 h, 1–100 µg·mL^−1, ND = not detected in the tested concentration range; for IC50: Homo sapiens, LoVo
Experimental: as §2, §3

[7] = tested on: Staphylococcus aureus DSM799; assay: MIC evaluation (broth method), S. aureus; assay type: cell-based; conditions: 48–72 h, read-out: Minimal inhibitory concentration S. aureus
Experimental: (§4) Sterile 96-well microtiter plates (Sarstedt) with nutrient broth (for bacteria) (Biocorp) or YM medium (for yeast and filamentous fungi) were inoculated with a standardized cell suspension of bacteria and yeast or fungal spores of 10^5 cell·mL^−1, and supplemented with aminochalcones dissolved in DMSO. […] All analysis were conducted in triplicates. The plates were incubated at 30 °C (bacteria and yeast) or 25 °C (filamentous fungi) for 48–72 h. The results were measured with the Spark® Multimode Microplate Reader (Tecan, Männedorf, Switzerland) at a 560 nm wavelength. The minimal inhibitory concentration was defined as the lowest concentration of a tested compound that completely restricted the growth of the microorganism. In order to verify the obtained results, microbial cultures subjected to each concentration of aminochalcone were inoculated onto nutrient agar or YM plates and incubated as described above. The lack of growth on agar plate was a confirmation of the MIC of the tested compound. The resulting MIC values were compared with the reference substances: oxytetracycline (against bacteria), cycloheximide (against yeast) and nystatin (against fungi) (Sigma Aldrich).

LoVo/DX = assay: SRB antiproliferative assay, LoVo/DX; assay type: cell-based, human; conditions: 48 h, 1–100 µg·mL^−1, ND = not detected in the tested concentration range; for IC50: Homo sapiens, LoVo/DX
Experimental: as §2, §3

[8] = tested on: Alternaria alternata CBS1526; assay: MIC evaluation (broth method), A. alternata; assay type: cell-based; conditions: Alternaria alternata, CBS1526, 48–72 h, read-out: Minimal inhibitory concentration A. alternata
Experimental: as §4

[9] = tested on: Aspergillus niger DSM1957; assay: MIC evaluation (broth method), A. niger; assay type: cell-based; conditions: Aspergillus niger, DSM1957, 48–72 h, read-out: Minimal inhibitory concentration A. niger
Experimental: as §4

Candida albicans DSM1386 [10] = assay: MIC evaluation (broth method), C. albicans; assay type: cell-based; conditions: DSM1386, broth method, 48–72 h, read-out: Minimal inhibitory concentration C. albicans
Experimental: as §4

[11] = tested on: HT-29, LS180, LoVo and LoVo/DX; assay: SRB assay, all tested human colon cancer cell lines (pooled statement); assay type: cell-based; conditions: range over HT-29, LS180, LoVo, read-out: IC50 values against all tested human colon cancer cell lines
Experimental: as §2
as §3, with “Cisplatin (Acros Organics, Waltham, MA, USA) and doxorubicin (Fisher BioReagents, Waltham, MA, USA) were used as positive controls of the test.” left out

[12] = tested on: Aspergillus niger DSM1957; assay: Microbial growth curve screening, A. niger; assay type: cell-based; conditions: 0.1% (w/v); for ∆OD A. niger: OD at 560 nm, control 2.14; for Lag-phase A. niger: control 11.0 h
Experimental: as §1

[13] = tested on: Escherichia coli ATCC10536; assay: MIC evaluation (broth method), E. coli; assay type: cell-based; conditions: 48–72 h, read-out: Minimal inhibitory concentration E. coli
Experimental: as §4

[14] = tested on: human breast cancer cell line T47D; design: method as in earlier work; conditions: cited from earlier work
[15] = tested on: all tested microorganisms; assay: MIC evaluation, all tested strains (pooled statement); assay type: cell-based; conditions: read-out: MIC values against all tested microorganisms
Experimental: as §4

Fusarium linii KB-F1 [16] = assay: MIC evaluation (broth method), F. linii; assay type: cell-based; conditions: Fusarium, KBF1, 48–72 h, read-out: Minimal inhibitory concentration F. linii
Experimental: as §4

[17] = tested on: all tested microorganisms; assay: Growth curve screening, all tested microorganisms (pooled statement); assay type: cell-based; conditions: 0.1% (w/v)
Experimental: as §1, with “To each well 280 μL of culture medium, 10 μL of microorganism suspension and 10 μL of aminochalcone (1–18) dissolved in dimethyl sulfoxide (3% (w/v)) were added. The final concentration of the tested compound (1–18) was 0.1% (w/v). Each experiment were performed in 3 replications.” left out, “Cell cultures were maintained at 28 °C on a continuous shaker.” left out

Trichophyton rubrum = tested on: Trichophyton rubrum; design: method as in doi:10.1007/s10600-018-2281-7; conditions: cited from earlier work
[18] = tested on: green monkey kidney fibroblasts COS7; assay: SRB assay, normal fibroblasts COS7; assay type: cell-based; conditions: 48 h, normal cell line, ND = not detected in the tested concentration range
Experimental: as §2, §3

[19] = SRB, 48 h, 1–100 µg·mL^−1, ND = not detected in the tested concentration range

Row | SMILES | ∆OD A. alternata [1] | IC50 at 48 h [3] [µg/mL] | ∆OD F. linii (Fusarium linii KB-F1 [4]) | Lag-phase F. linii (Fusarium linii KB-F1 [4]) [h] | IC50 (LS180) [µg/mL] | ∆OD E. coli [5] | IC50 (HT-29; [19]) [µg/mL] | ∆OD S. aureus [6] | IC50 (LoVo) [µg/mL] | MIC [7] [µg/mL] | IC50 (LoVo/DX) [µg/mL] | MIC [8] [µg/mL] | MIC [9] [µg/mL] | melting point [°C] | MIC (Candida albicans DSM1386 [10]) [µg/mL] | ∆OD A. niger [12] | Lag-phase A. niger [12] [h] | MIC [13] [µg/mL] | MIC (Fusarium linii KB-F1 [16]) [µg/mL] | also measured
1 | Nc1ccccc1C(=O)/C=C/c1ccccc1 [Compound 1, 2′-Aminochalcone] | 0.0 | 2.64 ± 0.47 (≈ 11.8 µM) | 0.73 | 18.5 | 2.06 ± 0.18 (≈ 9.23 µM) | 0.12 | 1.43 ± 0.16 (≈ 6.4 µM) | 0.0 | 1.56 ± 0.04 (≈ 6.99 µM) | 0.25 (≈ 1.12 µM) | 1.43 ± 0.02 (≈ 6.4 µM) | 1 (≈ 4.48 µM) | 0.125 (≈ 0.56 µM) |  |  |  |  |  |  | IC50 HT-29 (literature) (HT-29 cell line): 0.98 µg/mL (≈ 4.39 µM); IC50 (HT-29 cell line; read-out: IC50 HT-29 (literature)): 4.39 µM; ∆OD C. albicans (Candida albicans DSM1386 [2]; OD at 560 nm, control 1.58): 0.14; Lag-phase C. albicans (Candida albicans DSM1386 [2]; control 3.0 h): 24.5 h; Lag-phase E. coli ([5]; control 4.0 h): 10.0 h; times higher activity than cisplatin, HT-29 (HT-29; ratio of IC50 values vs cisplatin (19)): ~12 times
2 | Nc1cccc(C(=O)/C=C/c2ccccc2)c1 [Compound 2, 3′-Aminochalcone] | 0.0 | 3.25 ± 0.66 (≈ 14.6 µM) | 0.23 | 30.0 | 2.13 ± 0.18 (≈ 9.54 µM) | 0.0 | 1.6 ± 0.01 (≈ 7.17 µM) | 0.0 | 1.88 ± 0.12 (≈ 8.42 µM) | 0.25 (≈ 1.12 µM) | 1.97 ± 0.3 (≈ 8.82 µM) | 0.5 (≈ 2.24 µM) |  | 121 to 124 | 0.5 (≈ 2.24 µM) | 0.34 | 1.5 | 0.25 (≈ 1.12 µM) |  | IC50 [11]: 1.6 to 2.13 µg/mL (≈ 7.17 to 9.54 µM)
3 | Nc1ccc(C(=O)/C=C/c2ccccc2)cc1 [Compound 3, 4′-Aminochalcone] | 0.0 | 3.85 ± 0.28 (≈ 17.2 µM) | 0 |  | 4.68 ± 0.09 (≈ 21 µM) | 0.0 | 1.98 ± 0.18 (≈ 8.87 µM) | 0.0 | 2.84 ± 0.09 (≈ 12.7 µM) | 0.25 (≈ 1.12 µM) | 2.26 ± 0.05 (≈ 10.1 µM) | 0.5 (≈ 2.24 µM) | 0.5 (≈ 2.24 µM) |  | 0.5 (≈ 2.24 µM) |  |  | 0.5 (≈ 2.24 µM) | 0.25 (≈ 1.12 µM) | IC50 T47D (literature) [14]: 5.28 µg/mL (≈ 23.6 µM); MIC [15]: 0.25 to 0.5 µg/mL (≈ 1.12 to 2.24 µM); growth inhibition of all tested microorganisms [17]: complete inhibition of the growth
4 | Nc1ccccc1C(=O)/C=C/c1ccc([N+](=O)[O-])cc1 [Compound 10, 2′-Amino-4-nitrochalcone] | 0.20 | 1.79 ± 0.14 (≈ 6.67 µM) | 0.0 |  | 2 ± 0.35 (≈ 7.46 µM) | 0.0 | 3.24 ± 0.27 (≈ 12.1 µM) | 0.15 | 1.11 ± 0.07 (≈ 4.14 µM) |  | 0.96 ± 0.12 (≈ 3.58 µM) |  |  | 114 to 117 | 0.5 (≈ 1.86 µM) | 0.79 | 23.0 | 0.25 (≈ 0.932 µM) | 0.5 (≈ 1.86 µM) | Lag-phase A. alternata ([1]; control 16.5 h): 0.5 h; MIC80 Trichophyton rubrum (literature) (Trichophyton rubrum): 0.5 µg/mL (≈ 1.86 µM); Lag-phase S. aureus ([6]; control 2.5 h): 11.5 h
5 | N.N.[Cl][Pt][Cl] [Compound 19, Cisplatin, reference compound] |  |  |  |  |  |  |  |  |  |  |  |  |  |  |  |  |  |  |  | IC50 COS7 [18]: 3.86 ± 0.62 µg/mL; IC50 LS180 (LS180; 48 h): 1.49 ± 0.13 µg/mL; IC50 HT-29 (HT-29; [19]): 16.73 ± 0.58 µg/mL; IC50 LoVo (LoVo): 2.09 ± 0.12 µg/mL; IC50 LoVo/DX (LoVo/DX): 2.03 ± 0.17 µg/mL
